What was measured:
human TRPV1 [1] = target: T1, human TRPV1 (Homo sapiens (Human), UniProt Q8NER1); test: Capsaicin Activation Assay (intracellular Ca2+, FLIPR); format: cell-based; conditions: recombinant HEK293 cells expressing hTRPV1, 50 nM capsaicin
How it was run: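 Stably transfected HEK293 cells expressing human TRPV1 cDNA, plated the day before in poly-D-lysine plates. Compounds serially diluted from 10 mM DMSO stocks; intracellular Ca2+ fluorescence read on FLIPR at 1 to 5 second intervals.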

human TRPV1 [2] = target: T1, human TRPV1; test: Acid Activation Assay (pH 5.0, intracellular Ca2+, FLIPR); format: cell-based; conditions: percentage of the maximal pH 5.0-induced response remaining; recombinant HEK293 hTRPV1 cells; maximum concentration tested 37.5 μM
How it was run: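 HEK293 cells stably expressing recombinant hTRPV1, loaded with Calcium-4 dye 90-120 min at 25° C. Compounds added over a 12-point half-log range (top 37.5 μM), then pH 5.0 DPBS/MES challenge after 3 min; FLIPR peak fluorescence over baseline given as % of maximal pH 5.0 response.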

T1 sequence (Q8NER1 whole entry): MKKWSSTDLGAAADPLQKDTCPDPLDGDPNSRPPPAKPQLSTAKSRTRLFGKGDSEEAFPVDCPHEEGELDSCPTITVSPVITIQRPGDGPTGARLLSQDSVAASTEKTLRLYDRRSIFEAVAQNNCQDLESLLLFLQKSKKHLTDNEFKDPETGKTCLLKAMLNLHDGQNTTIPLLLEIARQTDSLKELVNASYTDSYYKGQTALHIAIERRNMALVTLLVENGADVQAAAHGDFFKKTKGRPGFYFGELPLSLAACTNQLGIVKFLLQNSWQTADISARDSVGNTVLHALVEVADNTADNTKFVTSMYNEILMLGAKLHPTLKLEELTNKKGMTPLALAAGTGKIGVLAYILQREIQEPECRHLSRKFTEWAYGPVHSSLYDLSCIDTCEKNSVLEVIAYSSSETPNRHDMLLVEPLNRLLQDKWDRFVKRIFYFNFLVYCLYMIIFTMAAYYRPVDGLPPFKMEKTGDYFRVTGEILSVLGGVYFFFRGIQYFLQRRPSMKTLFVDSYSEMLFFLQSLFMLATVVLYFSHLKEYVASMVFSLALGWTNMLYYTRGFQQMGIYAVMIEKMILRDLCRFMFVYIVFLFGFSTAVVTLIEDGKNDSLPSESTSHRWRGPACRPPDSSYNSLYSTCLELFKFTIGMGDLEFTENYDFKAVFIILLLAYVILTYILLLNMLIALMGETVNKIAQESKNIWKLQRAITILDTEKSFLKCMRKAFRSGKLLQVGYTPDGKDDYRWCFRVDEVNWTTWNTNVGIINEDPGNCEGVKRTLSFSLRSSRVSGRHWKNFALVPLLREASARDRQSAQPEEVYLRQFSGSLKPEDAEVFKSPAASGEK

Question: What does the source list for `O=C(Nc1ccc2c(c1)NC(=O)N(CCO)C2)N[C@@H]1CC(CF)(CF)Oc2cc(F)ccc21` [Example 319, 1-[(4R)-7-fluoro-2,2-bis(fluoromethyl)-3,4-dihydro-2H-chromen-4-yl]-3-[3-(2-hydroxyethyl)-2-oxo-1,2,3,4-tetrahydroquinazolin-7-yl]urea]?
Answer: IC50 (human TRPV1 [1]): 5000 nM; human TRPV1 H^+ (max % remain) (human TRPV1 [2]): 21%

Question: What does the source list for `CC1(C)C[C@@H](NC(=O)Nc2ccc3c(c2)NC(=O)N(CCO)C3)c2ccc(Cl)cc2O1` [Example 313, 1-[(4R)-7-chloro-2,2-dimethyl-3,4-dihydro-2H-chromen-4-yl]-3-[3-(2-hydroxyethyl)-2-oxo-1,2,3,4-tetrahydroquinazolin-7-yl]urea]?
Answer: IC50 (human TRPV1 [1]): 76 nM; human TRPV1 H^+ (max % remain) (human TRPV1 [2]): 4%

Question: For `C[C@@]1(CF)C[C@@H](NC(=O)Nc2ccc3c(c2)NC(=O)CC3)c2ccc(Cl)cc2O1` [Example 246, 1-[(2S,4R)-7-chloro-2-(fluoromethyl)-2-methyl-3,4-dihydro-2H-chromen-4-yl]-3-(2-oxo-1,2,3,4-tetrahydroquinolin-7-yl)urea], which IC50 (human TRPV1 [1]) is on record?
Answer: 130 nM

Question: What about the “human TRPV1 H^+ (max % remain)” value (human TRPV1 [2]) of the same compound?
Answer: 33%

Question: Which results are given for `O=C1CCc2ccc(NC(=O)N[C@@H]3CCc4cc(F)ccc43)cc2N1` [Example 240, 1-[(1R)-5-fluoro-2,3-dihydro-1H-inden-1-yl]-3-(2-oxo-1,2,3,4-tetrahydroquinolin-7-yl)urea]?
Answer: IC50 (human TRPV1 [1]): 37 nM; human TRPV1 H^+ (max % remain) (human TRPV1 [2]): 25%

Question: `CCC1(CC)C[C@@H](NC(=O)Nc2cccc3c2CNC(=O)N3C)c2ccc(C(F)(F)F)cc2O1` [Example 144, 1-[(4R)-2,2-diethyl-7-(trifluoromethyl)-3,4-dihydro-2H-chromen-4-yl]-3-(1-methyl-2-oxo-1,2,3,4-tetrahydroquinazolin-5-yl)urea] was tested. Which IC50 (human TRPV1 [1]) did it give?
Answer: 130 nM

Question: What about the “human TRPV1 H^+ (max % remain)” value (human TRPV1 [2]) of the same compound?
Answer: 5%

Question: With `Cn1c(=O)ccc2c(NC(=O)N[C@H]3CC(C)(C)Oc4ccc(F)cc43)cccc21` [Example 98, 1-[(4S)-6-fluoro-2,2-dimethyl-3,4-dihydro-2H-chromen-4-yl]-3-(1-methyl-2-oxo-1,2-dihydroquinolin-5-yl)urea] as the compound, how does the IC50 (human TRPV1 [1]) read?
Answer: 3700 nM

Question: And the “human TRPV1 H^+ (max % remain)” value (human TRPV1 [2])?
Answer: 58%

Question: Which results are given for `CCCC1(CCC)C[C@@H](NC(=O)Nc2ccc3c(c2)NC(=O)CO3)c2cccc(F)c2O1` [Example 110, 1-[(4R)-8-fluoro-2,2-dipropyl-3,4-dihydro-2H-chromen-4-yl]-3-(3-oxo-3,4-dihydro-2H-1,4-benzoxazin-6-yl)urea]?
Answer: IC50 (human TRPV1 [1]): 150 nM; human TRPV1 H^+ (max % remain) (human TRPV1 [2]): 111%

Question: What does the source list for `CCC1(CC)C[C@@H](NC(=O)Nc2ccc3c(c2)NC(=O)CO3)c2cc(F)ccc2O1` [Example 109, 1-[(4R)-2,2-diethyl-6-fluoro-3,4-dihydro-2H-chromen-4-yl]-3-(3-oxo-3,4-dihydro-2H-1,4-benzoxazin-6-yl)urea]?
Answer: IC50 (human TRPV1 [1]): 130 nM; human TRPV1 H^+ (max % remain) (human TRPV1 [2]): 92%

Question: What does the source list for `O=C1COc2ccc(NC(=O)N[C@H]3CC4(CCC4)Oc4ccc(F)cc43)cc2N1` [Example 122, 1-[(4S)-6-fluoro-3,4-dihydrospiro[chromene-2,1′-cyclobutan]-4-yl]-3-(3-oxo-3,4-dihydro-2H-1,4-benzoxazin-6-yl)urea]?
Answer: IC50 (human TRPV1 [1]): > 38000 nM; human TRPV1 H^+ (max % remain) (human TRPV1 [2]): 104%

Question: With `CN1C(=O)CCc2ccc(NC(=O)N[C@@H]3CCc4cc(F)ccc43)cc21` [Example 285, 1-[(1R)-5-fluoro-2,3-dihydro-1H-inden-1-yl]-3-(1-methyl-2-oxo-1,2,3,4-tetrahydroquinolin-7-yl)urea] as the compound, how does the IC50 (human TRPV1 [1]) read?
Answer: 55 nM

Question: And the “human TRPV1 H^+ (max % remain)” value (human TRPV1 [2])?
Answer: 27%

Question: With `O=C1CCc2ccc(NC(=O)N[C@@H]3CC4(CCC4)Oc4ccc(F)cc43)cc2N1` [Example 228, 1-[(4R)-6-fluoro-3,4-dihydrospiro[chromene-2,1′-cyclobutan]-4-yl]-3-(2-oxo-1,2,3,4-tetrahydroquinolin-7-yl)urea] as the compound, how does the IC50 (human TRPV1 [1]) read?
Answer: 120 nM

Question: What about the “human TRPV1 H^+ (max % remain)” value (human TRPV1 [2]) of the same compound?
Answer: 57%

Question: `CN1Cc2ccc(NC(=O)N[C@@H]3CCc4cc(C(C)(C)C)ccc43)cc2NC1=O` [Example 179, 1-[(1R)-5-tert-butyl-2,3-dihydro-1H-inden-1-yl]-3-(3-methyl-2-oxo-1,2,3,4-tetrahydroquinazolin-7-yl)urea] was tested. Which IC50 (human TRPV1 [1]) did it give?
Answer: 190 nM

Question: And the “human TRPV1 H^+ (max % remain)” value (human TRPV1 [2])?
Answer: 37%

Question: With “1-(1-methyl-2-oxo-1,2,3,4-tetrahydroquinazolin-5-yl)-3-[(4R)-8-(trifluoromethoxy)-3,4-dihydro-2H-chromen-4-yl]urea [Example 138]” as the compound, how does the IC50 (human TRPV1 [1]) read?
Answer: 38 nM

Question: What about the “human TRPV1 H^+ (max % remain)” value (human TRPV1 [2]) of the same compound?
Answer: 19%

Question: What does the source list for `CCC1(CC)C[C@@H](NC(=O)Nc2ccc3c(c2)NC(=O)CC3)c2ccc(C(F)(F)F)cc2O1` [Example 224, 1-[(4R)-2,2-diethyl-7-(trifluoromethyl)-3,4-dihydro-2H-chromen-4-yl]-3-(2-oxo-1,2,3,4-tetrahydroquinolin-7-yl)urea]?
Answer: IC50 (human TRPV1 [1]): 35 nM; human TRPV1 H^+ (max % remain) (human TRPV1 [2]): 44%

Question: How did the IC50 (human TRPV1 [1]) turn out when `COCC1(COC)C[C@@H](NC(=O)Nc2ccc3c(c2)NC(=O)CC3)c2cc(F)ccc2O1` [Example 237, 1-[(4R)-6-fluoro-2,2-bis(methoxymethyl)-3,4-dihydro-2H-chromen-4-yl]-3-(2-oxo-1,2,3,4-tetrahydroquinolin-7-yl)urea] was run?
Answer: 150 nM

Question: And the “human TRPV1 H^+ (max % remain)” value (human TRPV1 [2])?
Answer: 52%

Question: What does the source list for `CN1C(=O)CCc2ccc(NC(=O)N[C@H]3CC(C)(C)Oc4ccc(F)cc43)cc21` [Example 287, 1-[(4S)-6-fluoro-2,2-dimethyl-3,4-dihydro-2H-chromen-4-yl]-3-(1-methyl-2-oxo-1,2,3,4-tetrahydroquinolin-7-yl)urea]?
Answer: IC50 (human TRPV1 [1]): 13000 nM; human TRPV1 H^+ (max % remain) (human TRPV1 [2]): 92%

Question: Which IC50 (human TRPV1 [1]) does the source give for `CN1C(=O)CCc2ccc(NC(=O)N[C@@H]3CC(CF)(CF)Oc4ccccc43)cc21` [Example 280, 1-[(4R)-2,2-bis(fluoromethyl)-3,4-dihydro-2H-chromen-4-yl]-3-(1-methyl-2-oxo-1,2,3,4-tetrahydroquinolin-7-yl)urea] here?
Answer: 960 nM

Question: What about the “human TRPV1 H^+ (max % remain)” value (human TRPV1 [2]) of the same compound?
Answer: 68%

Question: Which IC50 (human TRPV1 [1]) does the source give for `CCC1(CC)C[C@@H](NC(=O)Nc2ccc3c(c2)NC(=O)N(CCO)C3)c2ccccc2O1` [Example 45, 1-[(4R)-2,2-diethyl-3,4-dihydro-2H-chromen-4-yl]-3-[3-(2-hydroxyethyl)-2-oxo-1,2,3,4-tetrahydroquinazolin-7-yl]urea] here?
Answer: 43 nM

Question: What about the “human TRPV1 H^+ (max % remain)” value (human TRPV1 [2]) of the same compound?
Answer: 4%

Question: Which IC50 (human TRPV1 [1]) does the source give for `CCC1(CC)C[C@@H](NC(=O)Nc2ccc3c(c2)NC(=O)CO3)c2ccc(Cl)c(Cl)c2O1` [Example 105, 1-[(4R)-7,8-dichloro-2,2-diethyl-3,4-dihydro-2H-chromen-4-yl]-3-(3-oxo-3,4-dihydro-2H-1,4-benzoxazin-6-yl)urea] here?
Answer: 460 nM

Question: And the “human TRPV1 H^+ (max % remain)” value (human TRPV1 [2])?
Answer: 79%

Question: What does the source list for `CC1(C)C[C@@H](NC(=O)Nc2ccc3c(c2)NC(=O)N(CCO)C3)c2ccc(F)c(Cl)c2O1` [Example 312, 1-[(4R)-8-chloro-7-fluoro-2,2-dimethyl-3,4-dihydro-2H-chromen-4-yl]-3-[3-(2-hydroxyethyl)-2-oxo-1,2,3,4-tetrahydroquinazolin-7-yl]urea]?
Answer: IC50 (human TRPV1 [1]): 200 nM; human TRPV1 H^+ (max % remain) (human TRPV1 [2]): 36%

Question: For `CN1Cc2ccc(NC(=O)N[C@@H]3CC(CF)(CF)Oc4cc(C(F)(F)F)ccc43)cc2NC1=O` [Example 173, 1-[(4R)-2,2-bis(fluoromethyl)-7-(trifluoromethyl)-3,4-dihydro-2H-chromen-4-yl]-3-(3-methyl-2-oxo-1,2,3,4-tetrahydroquinazolin-7-yl)urea], which IC50 (human TRPV1 [1]) is on record?
Answer: 100 nM

Question: What about the “human TRPV1 H^+ (max % remain)” value (human TRPV1 [2]) of the same compound?
Answer: 54%

Source: patent publication US8969325B2, “TRPV1 antagonists” (AbbVie Inc., priority 2011, dated 2015)
